According to patent publication US11001561B2, “Pyrimidinone derivatives as SHP2 antagonists” (MERCK PATENT GMBH, priority 2019, dated 2021):
Where a name gives a salt, the structure may show the parent alone.

Target: Full length SHP2 protein (Recombinant Human SHP-2) (Homo sapiens (Human), UniProt Q06124)
Test: SHP2 biochemical assay (DiFMUP substrate, activating peptide IRSI_2pY)
Conditions: SHP-2 biochemical assay IC50 (μM), activating peptide IRSI_2pY 140 nM, DiFMUP, 60 min
Experimental: The inhibition of SHP2 by compounds of the invention was monitored using the surrogate substrate DiFMUP after protein activation by a peptide bearing two appropriately spaced phosphotyrosine. […] The generation of the DiFMU product by activated SHP2 was monitored through Fluorescence measurement with a PerkinElmer Envision reader. The inhibitor dose response curves were analyzed with Genedata Screener.

Sequence of Full length SHP2 protein (Recombinant Human SHP-2) (Q06124 2-593): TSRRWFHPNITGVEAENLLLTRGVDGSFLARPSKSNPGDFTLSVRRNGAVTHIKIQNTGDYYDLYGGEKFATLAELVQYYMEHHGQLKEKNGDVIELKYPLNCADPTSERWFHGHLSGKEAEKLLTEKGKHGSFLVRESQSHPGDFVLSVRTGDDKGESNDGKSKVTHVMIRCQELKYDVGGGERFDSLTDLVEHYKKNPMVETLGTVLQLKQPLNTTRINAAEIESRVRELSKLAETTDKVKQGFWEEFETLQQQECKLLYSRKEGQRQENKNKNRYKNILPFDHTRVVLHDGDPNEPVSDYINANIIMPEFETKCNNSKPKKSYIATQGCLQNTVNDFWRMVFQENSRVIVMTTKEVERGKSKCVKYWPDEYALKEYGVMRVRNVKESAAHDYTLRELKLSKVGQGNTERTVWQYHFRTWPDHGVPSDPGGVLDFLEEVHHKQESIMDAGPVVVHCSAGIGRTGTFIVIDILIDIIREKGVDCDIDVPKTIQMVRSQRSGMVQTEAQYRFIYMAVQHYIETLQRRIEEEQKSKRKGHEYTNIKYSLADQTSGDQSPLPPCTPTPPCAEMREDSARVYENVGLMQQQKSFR

Compound | IC50 [µM]
Cc1c(N2CCC3(CC2)Oc2ncccc2[C@H]3N)nc(C)n(-c2cccc(Cl)c2Cl)c1=O [Compound 79a, (3M)-6-[(3R)-3-amino-3H-spiro[furo[2,3-b]pyridine-2,4′-piperidin]-1′-yl]-3-(2,3-dichlorophenyl)-2,5-dimethylpyrimidin-4-one] | 0.3

Same assay, conditions: activating peptide IRSI_2pY 140 nM, DiFMUP, 60 min; read-out: SHP-2 biochemical assay IC50

IC50 [µM] | Compound
1.1 | Cc1nc(N2CCC(C)(N)CC2)c(Cl)c(=O)n1-c1cccc(Cl)c1Cl [Compound 10, 6-(4-amino-4-methylpiperidin-1-yl)-5-chloro-3-(2,3-dichlorophenyl)-2-methyl-3,4-dihydropyrimidin-4-one]
3.8 | CC1(N)CCN(c2cc(=O)n(-c3cccc(Cl)c3Cl)c(C(F)F)n2)CC1 [Compound 11, 6-(4-amino-4-methylpiperidin-1-yl)-3-(2,3-dichlorophenyl)-2-(difluoromethyl)-3,4-dihydropyrimidin-4-one]
4.3 | Cc1nc(N2CCC3(CC2)CC3CN)cc(=O)n1-c1cccc(Cl)c1Cl (centres unmarked) [Compound 13, 6-[1-(aminomethyl)-6-azaspiro[2.5]octan-6-yl]-3-(2,3-dichlorophenyl)-2-methyl-3,4-dihydropyrimidin-4-one]
6.6 | Cc1nc(N2CC3CCCC3(CN)C2)cc(=O)n1-c1cccc(Cl)c1Cl (centres unmarked) [Compound 14, 6-[3a-(aminomethyl)-octahydrocyclopenta[c]pyrrol-2-yl]-3-(2,3-dichlorophenyl)-2-methyl-3,4-dihydropyrimidin-4-one]
4.3 | Cc1nc(N2CCC(CO)(CCN)CC2)cc(=O)n1-c1cccc(Cl)c1Cl [Compound 16, 6-[4-(2-aminoethyl)-4-(hydroxymethyl)piperidin--yl]-3-(2,3-dichlorophenyl)-2-methyl-3,4-dihydropyrimidin-4-one]
3 | CC1(CN)CCN(c2cc(=O)n(-c3cccc(Cl)c3Cl)c(C(F)F)n2)CC1 [Compound 17, 6-[4-(aminomethyl)-4-methylpiperidin-1-yl]-3-(2,3-dichlorophenyl)-2-(difluoromethyl)-3,4-dihydropyrimidin-4-one]
1.6 | Cc1nc(N2CCCC(C)(N)CC2)cc(=O)n1-c1cccc(Cl)c1Cl (centres unmarked) [Compound 21, 6-(4-amino-4-methylazepan-1-yl)-3-(2,3-dichlorophenyl)-2-methyl-3,4-dihydropyrimidin-4-one hydrochloride]
2.1 | Cc1nc(N2CCC(N)(C(N)=O)CC2)cc(=O)n1-c1cccc(Cl)c1Cl [Compound 22, 4-amino-1-[1-(2,3-dichlorophenyl)-2-methyl-6-oxo-1,6-dihydropyrimidin-4-yl]piperidine-4-carboxamide]
3.5 | Cc1nc(N2CCC(O)(CN)CC2)cc(=O)n1-c1cccc(Cl)c1Cl [Compound 28, 6-[4-(aminomethyl)-4-hydroxypiperidin-1-yl]-3-(2,3-dichlorophenyl)-2-methyl-3,4-dihydropyrimidin-4-one]
0.56 | CNC1(C)CCN(c2cc(=O)n(-c3cccc(Cl)c3Cl)c(C)n2)CC1 [Compound 31, 3-(2,3-dichlorophenyl)-2-methyl-6-[4-methyl-4-(methylamino)piperidin-1-yl]-3,4-dihydropyrimidin-4-one]
5 | CCc1c(N2CCC3(CC2)CO[C@@H](C)[C@H]3N)nc(C)n(-c2cccc(Cl)c2Cl)c1=O [Compound 36, 6-[(3S,4S)-4-amino-3-methyl-2-oxa-8-azaspiro[4.5]decan-8-yl]-3-(2,3-dichlorophenyl)-5-ethyl-2-methyl-3,4-dihydropyrimidin-4-one]
> 10 | Cc1c(N2CCC(C)(N)CC2)nc(C)n(-c2ccc3ccccc3c2)c1=O [Compound 39, 6-(4-Amino-4-methyl-piperidin-1-yl)-2,5-dimethyl-3-naphthalen-2-yl-3H-pyrimidin-4-one]
2.5 | Cc1nc(N2CCC(NC[C@@H](O)CO)CC2)cc(=O)n1-c1cccc(Cl)c1Cl [Compound 41, 3-(2,3-dichlorophenyl)-6-(4-{[(2R)-2,3-dihydroxypropyl]-amino}piperidin-1-yl)-2-methyl-3,4-dihydropyrimidin-4-one]
4.3 | Cc1nc(N2CCC(NC[C@H](O)CO)CC2)cc(=O)n1-c1cccc(Cl)c1Cl [Compound 42, 3-(2,3-dichlorophenyl)-6-(4-{[(2S)-2,3-dihydroxypropyl]amino}-piperidin-1-yl)-2-methyl-3,4-dihydropyrimidin-4-one]
> 10 | Cc1c(N2CCC(C)(N)CC2)nc(C)n(-c2cccc3ncsc23)c1=O [Compound 43, 6-(4-Amino-4-methyl-piperidin-1-yl)-3-benzothiazol-7-yl-2,5-dimethyl-3H-pyrimidin-4-one]
18 | Cc1c(N2CCC(C)(CN)CC2)nc(C)n(-c2ccc3ccccc3c2)c1=O [Compound 44, 6-(4-Aminomethyl-4-rnethyl-piperidin-1-yl)-2,5-dimethyl-3-naphthalen-2-yl-3H-pyrimidin-4-one]

IC50 [µM] | Compound
1.2 | Cc1c(N2CCC3(CC2)CO[C@@H](C)[C@H]3N)nc(C)n(-c2ccc3ccccc3c2)c1=O [Compound 45, 6-((3S,4S)-4-Amino-3-methyl-2-oxa-8-aza-spiro[4.5]dec-8-yl)-2,5-dimethyl-3-naphthalen-2-yl-3H-pyrimidin-4-one]
> 10 | COCC(O)CNC1CCN(c2cc(=O)n(-c3cccc(Cl)c3Cl)c(C)n2)CC1 (centres unmarked) [Compound 46, 3-(2,3-dichlorophenyl)-6-{4-[(2-hydroxy-3-methoxypropyl)-amino]piperidin-1-yl}-2-methyl-3,4-dihydropyrimidin-4-one]
> 10 | Cc1c(N2CCC(C)(N)CC2)nc(C)n(-c2ccc3nccnc3c2)c1=O [Compound 47, 6-(4-Amino-4-methyl-piperidin-1-yl)-2,5-dimethyl-3-quinoxalin-6-yl-3H-pyrimidin-4-one]
18 | Cc1c(N2CCC(C)(N)CC2)nc(C)n(-c2ccc3ccccc3c2Cl)c1=O [Compound 48, 6-(4-Amino-4-methyl-piperidin-1-yl)-3-(1-chloro-naphthalen-2-yl)-2,5-dimethyl-3H-pyrimidin-4-one]
0.56 | Cc1nc(N2CCC(C)(NCC3CCC(O)CC3)CC2)cc(=O)n1-c1cccc(Cl)c1Cl (centres unmarked) [Compound 50, 3-(2,3-dichlorophenyl)-6-(4-{[(4-hydroxycyclohexyl)methyl]amino}-4-methylpiperidin-1-yl)-2-methyl-3,4-dihydropyrimidin-4-one]
> 10 | Cc1c(N2CCc3cccc(N)c3C2)nc(C)n(-c2cccc(Cl)c2Cl)c1=O [Compound 51, 6-(8-amino-1,2,3,4-tetrahydroisoquinolin-2-yl)-3-(2,3-dichlorophenyl)-2,5-dimethyl-3,4-dihydropyrimidin-4-one]
0.59 | Cc1c(N2CCC3(CC2)CO[C@@H](C)[C@H]3N)nc(C)n(-c2ccc3ccccc3c2Cl)c1=O [Compound 52, 6-((3S,4S)-4-Amino-3-methyl-2-oxa-8-aza-spiro[4.5]dec-8-yl)-3-(1-chloro-naphthalen-2-yl)-2,5-dimethyl-3H-pyrimidin-4-one]
6.1 | Cc1c(N2CCC3(CC2)CO[C@@H](C)[C@H]3N)nc(C)n(-c2ccc3nccnc3c2)c1=O [Compound 53, 6-((3S,4S)-4-Amino-3-methyl-2-oxa-8-aza-spiro[4.5]dec-8-yl)-2,5-dimethyl-3-quinoxalin-6-yl-3H-pyrimidin-4-one]
5.6 | Cc1c(N2CCC(C)(CN)CC2)nc(C)n(-c2ccc3ccccc3c2Cl)c1=O [Compound 54, 6-(4-Aminomethyl-4-methyl-piperidin-1-yl)-3-(1-chloro-naphthalen-2-yl)-2,5-dimethyl-3H-pyrimidin-4-one]
> 10 | Cc1c(N2CCC(C)(CN)CC2)nc(C)n(-c2ccc3nccnc3c2)c1=O [Compound 55, 6-(4-Aminomethyl-4-methyl-piperidin-1-yl)-2,5-dimethyl-3-quinoxalin-6-yl-3H-pyrimidin-4-one]
2.6 | Cc1nc(N2C[C@H]3CC(O)C[C@@]3(CN)C2)cc(=O)n1-c1cccc(Cl)c1Cl (stereo partly drawn) [Compound 59, 6-[(3aR,6aS)-3a-(aminomethyl)-5-hydroxy-octahydrocyclopenta[c]pyrrol-2-yl]-3-(2,3-dichlorophenyl)-2-methyl-3,4-dihydropyrimidin-4-one]
10 | Cc1nc(N2CC3CC4CC(C4(C)C)C3(CN)C2)cc(=O)n1-c1cccc(Cl)c1Cl (centres unmarked) [Compound 60, 6-[2-(aminomethyl)-9,9-dimethyl-4-azatricyclo[6.1.1.0^2,6]decan-4-yl]-3-(2,3-dichlorophenyl)-2-methyl-3,4-dihydropyrimidin-4-one]
> 10 | Cc1nc(N2CCN3C(=O)C(N)CC3C2)cc(=O)n1-c1cccc(Cl)c1Cl (centres unmarked) [Compound 61, 6-7-amino-6-oxo-octahydropyrrolo[1,2-a]pyrazin-2-yl-3-(2,3-dichlorophenyl)-2-methyl-3,4-dihydropyrimidin-4-one]
> 10 | Cc1c(N2CCC(C)(N)CC2)ncn(-c2cccc(Cl)c2Cl)c1=O [Compound 70, 6-(4-Amino-4-methyl-piperidin-1-yl)-3-(2,3-dichloro-phenyl)-5-methyl-3H-pyrimidin-4-one]
> 10 | Cc1c(N2CCc3cc(N)ccc3C2)nc(C)n(-c2cccc(Cl)c2Cl)c1=O [Compound 83, 6-(6-amino-1,2,3,4-tetrahydroisoquinolin-2-yl)-3-(2,3-dichlorophenyl)-2,5-dimethyl-3,4-dihydropyrimidin-4-one]

Compound | IC50 [µM]
Cc1c(N2CCC(C)(N)CC2)nc(C)n(-c2cccc(Cl)c2Cl)c1=O [Compound 12, 6-(4-amino-4-methylpiperidin-1-yl)-3-(2,3-dichlorophenyl)-2,5-dimethyl-3,4-dihydropyrimidin-4-one] | 1
Cc1nc(N2CC3CCC(C2)N3)cc(=O)n1-c1cccc(Cl)c1Cl [Compound 56, 6-3,8-diazabicyclo[3.2.1]octan-3-yl-3-(2,3-dichlorophenyl)-2-methyl-3,4-dihydropyrimidin-4-one] | 5.2
Cc1nc(N2CCC3(CC2)CO[C@@H](C)[C@H]3N)c(CCO)c(=O)n1-c1cccc(Cl)c1Cl [Compound 76, 6-[(3S,4S)-4-amino-3-methyl-2-oxa-8-azaspiro[4.5]decan-8-yl]-3-(2,3-dichlorophenyl)-5-(2-hydroxyethyl)-2-methyl-3,4-dihydropyrimidin-4-one Hydrochloride] | 7
